Measured values: patent US9539367B2, “Gallium inhibits biofilm formation” (priority 2003, dated 2017)
pIC50: −log10 of the molar value. Where two headings read alike, the source gives them in different places.

Assays:
[1] = test system: intraphagosomal M. tuberculosis; test: 59Fe acquisition by M. tuberculosis within macrophage phagosomes; format: cell-based; settings: 10 μM Ga(NO3)3; 59Fe transferrin
Method: FIG. 6. Ga-transferrin inhibits Fe acquisition by M. tuberculosis within macrophage phagosomes in a concentration-dependent manner. ^59Fe transferrin (10 μM) was added to M. tuberculosis-containing MDMs in the absence (control) or the presence of the indicated concentrations of Ga-transferrin for 24 h MDMs were lysed, and the lysates were filtered through a 0.22-μm (pore-size) filter. M. tuberculosis-associated radioactivity (expressed in cpm) on the filter was determined. Shown are the cpm values as a function of the Ga concentration added from a representative experiment.
Fe-TF is the major form of extracellular Fe, and transport of exogenously added TF to the M. tuberculosis-containing phagosome of human macrophages (Clemens et al., 1996) has been observed. It was therefore hypothesized that gallium competes with Fe uptake by bacteria dividing within the phagosome. […] This was not due to differences in total MDM ^59Fe.
In two recent preliminary experiments, MDM monolayers were preloaded with either ^59Fe or ^67Ga or both (pulse/chase, 24 h each). Erdman M. tuberculosis was then added. After 48 h, bacteria isolated from the phagosome were assessed for associated iron or gallium. Each metal could be found specifically associated with the bacteria.

P. aeruginosa biofilm = test: Biofilm formation of GFP-labeled P. aeruginosa in continuous culture flow cells; format: cell-based
[2] = patients with cancer-related hypercalcemia; cited from earlier work
P. aeruginosa [3] = test: P. aeruginosa growth in 1:100 strength TSB medium (A600); settings: batch culture
Method: Effect of gallium on the growth of P. aeruginosa. Bacteria were inoculated in 1:100 strength TSB medium with the indicated concentrations of gallium and grown at 37° C. with shaking. Growth was monitored as the change in A600 over 15 h.

[4] = test system: M. tuberculosis within human monocyte-derived macrophages (MDM); format: cell-based
IdeR = IdeR (Mycobacterium tuberculosis, UniProt P9WMH1); test: IdeR DNA binding, gel mobility shift assay with HisE promoter region; set-up: species or system M. tuberculosis; settings: for IdeR binding to HisE promoter DNA fragment: 200 μM
Sequence of IdeR (P9WMH1 whole entry, the tested form may be a part): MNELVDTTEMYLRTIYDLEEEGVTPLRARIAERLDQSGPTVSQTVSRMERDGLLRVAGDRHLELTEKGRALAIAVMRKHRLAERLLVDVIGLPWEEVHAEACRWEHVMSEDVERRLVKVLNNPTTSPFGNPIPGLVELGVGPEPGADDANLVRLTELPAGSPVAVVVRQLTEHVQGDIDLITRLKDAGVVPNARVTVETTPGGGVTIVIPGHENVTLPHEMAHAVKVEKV
Description: The iron regulatory element, IdeR, regulates the production of catalase, SOD, and siderophores in mycobacteria (Dussurget et al., 1996) in a manner analogous to P. aeruginosa Fur. In order for DNA binding to occur, IdeR must be complexed with a divalent metal such as Fe^2+ or Ni^2+. The effect of Ga(NO3)3 on the binding (gel mobility shift assay) of IdeR was examined using the HisE promoter region from M. tuberculosis that contains a high affinity IdeR binding site (Schmitt et al., 1995). […] A similar lack of binding of Ga^3+ to P. aeruginosa Fur is expected based on these findings.

Erdman M. tuberculosis [5] = test: 59Fe acquisition by M. tuberculosis in 7H9 medium; format: cell-based; settings: 500 nM 59Fe-citrate, 6 h
Method: FIGS. 4A-4B. […] Erdman M. tuberculosis (2×10^7 ml) was incubated for 6 h in 7H9 medium (without added Fe and OADC) with 500 nM ^59Fe-citrate (FIG. 4A) or ^67Ga-citrate (FIG. 4B) in the absence or presence of the indicated concentrations of cold competing metal. The bacteria were then washed repeatedly, and bacterium-associated ^67Ga or ^59Fe levels were determined. Results are shown as the amount of metal acquired as a function of increasing concentrations of the cold competing metal. Experimental groups were performed in triplicate, and the data shown represent three independent experiments (mean±SEM).

M. tuberculosis RR [6] = biological target: T1, M. tuberculosis RR (Mycobacterium tuberculosis, UniProt P9WH71); test: Radiolabeled CDP reduction assay for ribonucleotide reductase activity; format: biochemical; settings: n=2; read-out: concentration that inhibited RR activity by 50%
T1 sequence (P9WH71 whole entry): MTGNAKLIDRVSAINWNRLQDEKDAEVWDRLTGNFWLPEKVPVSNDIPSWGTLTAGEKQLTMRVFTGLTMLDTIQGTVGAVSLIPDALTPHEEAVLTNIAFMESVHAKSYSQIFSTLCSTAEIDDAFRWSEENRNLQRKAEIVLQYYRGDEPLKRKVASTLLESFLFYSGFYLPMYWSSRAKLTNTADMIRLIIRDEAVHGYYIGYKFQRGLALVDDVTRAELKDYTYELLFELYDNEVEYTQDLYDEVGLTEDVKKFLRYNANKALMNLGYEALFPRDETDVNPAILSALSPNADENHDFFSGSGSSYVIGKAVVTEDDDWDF

[7] = test system: P. aeruginosa strain PA01; test: P. aeruginosa growth in iron-supplemented succinate media (A600); format: cell-based; settings: 100 nM gallium
Method: FIG. 7. P. aeruginosa was inoculated to an OD (A600) of about 0.010 into succinate media alone or with FeCl3 supplementation +/− the Ga chelates.
P. aeruginosa growth is dependent on the addition of exogenous Fe (FIG. 7). […] When gallium, either in the form of Ga(NO3)3 or Ga-TF, was added to iron-supplemented succinate media at concentrations ≧1 μM, a gallium concentration-dependent inhibition of P. aeruginosa growth was observed (FIG. 7). […] Similar results were observed under different conditions (see below).

established biofilms = test: Killing of established three-day-old biofilms, viability by propidium iodide; format: cell-based, P. aeruginosa; settings: 10 μM, 100 μM, 1000 μM; 12, 24, 48, 72 hours
Method: FIGS. 10A-10D. Gallium kills established biofilms. Three-day-old biofilms were exposed to gallium in concentrations of 10 μM, 100 μM, and 1000 μM. Biofilm viability was assessed with propidium iodide, and observations were recorded at 12 hours (FIG. 10A), 24 hours (FIG. 10B), 48 hours (FIG. 10C), and 72 hours (FIG. 10D).
Three-day-old biofilms were exposed to gallium in concentrations of 10 μM, 100 μM, and 1000 μM. The biofilm viability was assessed with propidium iodide, and observations were recorded at 12 hours (FIG. 10A), 24 hours (FIG. 10B), 48 hours (FIG. 10C), and 72 hours (FIG. 10D).

[8] = human, in vivo; read-out: peak levels achieved clinically; cited from earlier work
M. tuberculosis RR [9] = biological target: T1, M. tuberculosis RR; settings: Yang et al., 1997; read-out: IC50, RR inhibition; cited from earlier work
P. aeruginosa [10] = settings: cited from earlier work
Erdman M. tuberculosis [11] = format: cell-based; settings: liquid media

Molecule: O=[N+]([O-])[O-].O=[N+]([O-])[O-].O=[N+]([O-])[O-].[Ga+3] [Ga(NO3)3, gallium nitrate]
- 59Fe acquisition by intraphagosomal M. tuberculosis [1]: markedly decreased
- effect on P. aeruginosa biofilm formation (P. aeruginosa biofilm; 0.3 μM Ga(NO3)3 (sub-inhibitory), up to 4 days): subsequent steps in biofilm formation were inhibited
- tolerability [2]: well tolerated
- concentration above which growth rate of P. aeruginosa significantly decreased (P. aeruginosa [3]): exceeded 1 μM

Molecule: O=[N+]([O-])[O-].[Na+] [NaNO3, reference compound]
- effect on mycobacterial growth within macrophages ([4]; nitrate control): no effect

Molecule: [Ni+2] [Ni^2+, reference compound]
- IdeR binding to HisE promoter DNA fragment (IdeR): binding was observed

Molecule: CC(C)(O/N=C(\C(=O)N[C@@H]1C(=O)N2C(C(=O)[O-])=C(C[n+]3ccccc3)CS[C@H]12)c1csc(N)n1)C(=O)O [ceftazidime, reference compound]
- effect on P. aeruginosa biofilm development (P. aeruginosa biofilm; sub-inhibitory concentration, 0.25 μg/ml): did not inhibit biofilm development

Molecule: [Ga+3] [gallium]
- bactericidal activity for M. tuberculosis ([4]; extracellularly and even more so intracellularly in macrophages): bactericidal
- competition for M. tuberculosis acquisition of 59Fe (Erdman M. tuberculosis [5]): highly effective in competing
- interference with Ni2+ or Fe2+ activation of IdeR binding (IdeR): did not interfere
- IdeR binding to HisE promoter DNA fragment (IdeR): did not lead to IdeR binding
- pIC50 (M. tuberculosis RR [6]): 3.35
- effect on P. aeruginosa growth [7]: did not inhibit growth
- killing of established biofilms (established biofilms): kills established biofilms in a time and concentration dependent manner
- Cmax [8]: 140 to 700 µM

Molecule: NC(=O)NO [hydroxyurea]
- pIC50 (M. tuberculosis RR [9]): 2.30 to 2.52

Molecule: NC[C@H]1O[C@H](O[C@H]2[C@H](O)[C@@H](O[C@H]3O[C@H](CO)[C@@H](O)[C@H](N)[C@H]3O)[C@H](N)C[C@@H]2N)[C@H](N)C[C@@H]1O [tobramycin]
- reduction of biofilm cell counts (P. aeruginosa [10]; levels far in excess of the MIC, biofilm cells): approximately 2 logs
- decrease in planktonic cells (P. aeruginosa [10]; same dosage, planktonic cells): > 8 log

Molecule: Ga-TF: gallium chelated by serum transferrin (TF)
- inhibiting mycobacterial growth compared with Ga(NO3)3 (Erdman M. tuberculosis [11]): as effective as Ga(NO3)3
- inhibiting mycobacterial growth compared with Ga(NO3)3 ([4]; within human macrophages): as effective as Ga(NO3)3
